The source of these data is US20240115581A1, “Combination therapy for the treatment or prevention of neurological disorders” (Norwegian University of Science and Technology (NTNU), priority 2022, published 2024).

Data set [1] concerns 3xTg AD mice. In words: Quantification of intraneuronal Aβ (Aβ+ neurons) in dSub after drug infusions. It is filed as in vivo. Conditions: Lonafarnib 80 mg/kg intraventricular, 10 days; young 3xTg AD mice. As for the experimental part: (§1) In these experiments, a final concentration of 50 mg/kg of Fasudil (10 mM; Selleck Chemicals, Houston, TX, United States) was infused for 14 days in mice and stored at −80° C., whilst a final concentration of 80 mg/kg of Lonafarnib (5 mM; Cayman Chemical, Ann Arbor, MI, United States) was infused for 10 days and stored −20° C. between infusions. […] The same dosages were used during combinatorial infusions of Fasudil and Lonafarnib (administered for a duration of 7 days) in mice (n=4) as the drugs target independent intracellular pathways. All dosages in ml were calculated using; dosage (mg)/concentration (mg/ml)=dose×ml) and were infused at a volume of 60 μl at a rate of 1 μl/min using saline as a control vehicle. […]
Effect size (Cohen's D) was calculated based on initial experiments between animals infused with Fasudil and animals infused with a vehicle, and the resulting effects on intraneuronal Aβ in dSub. Based on each group consisting of n=2 animals, an effect size of 0.75 was calculated (0.8 is considered a large effect size). […] Behavioral performance in the morphed environments of the context-dependent spatial memory task was calculated as follows: dig in square-consistent location=1, dig in circle-consistent location=0, dig in any other location=0.5. […]

For data set [2], the system named is 3xTg AD mice. In words: Quantification of amyloid plaques (number, size) in dSub after intraventricular infusions. It is filed as in vivo. The note with it: Lonafarnib 80 mg/kg intraventricular, 10 days, 14 months-old 3xTg AD mice.
Protocol: Mice were administered a lethal dose of sodium pentobarbital (100 mg/ml; Apotekforeningen, Oslo, Norway) and transcardially perfused with Ringer's solution followed by paraformaldehyde (PFA, 4%; Sigma-Aldrich) in 125 mM phosphate buffer (PB). Brains were extracted and fixed for a minimum of 24 h in PFA at 4° C. and transferred to a 2% DMSO solution prepared in PB for 24 h at 4° C. Brains were sectioned coronally at 40 μm on a freezing-sliding microtome (Microm HM430, ThermoFisher Scientific, Waltham, MA, United States).
An incision was made in the non-implanted hemisphere for visualization of the control hemisphere. Immunohistochemical processing was conducted on the tissue. […]
In data set [3] the test system is 3xTg AD mice injected with AAV-tau. In words: Quantification of tau+ neurons in LEC layer II after AAV-tau injection and intraventricular infusion. It is filed as in vivo. Conditions: Lonafarnib 80 mg/kg intraventricular, 10 days; 6 months-old 3xTg AD mice; n.s. As for the experimental part:
Mice were treated identically to microdialysis guide implantation surgeries, up until deriving stereotaxic coordinates. To target LEC layer II, a craniotomy was made at 0.5 mm anterior to lambda and ˜4 mm lateral (dependent on animal weight) to the midline. A Hamilton microsyringe (Neuros 32-gauge syringe, 5 μl, Hamilton company, Nevada, United States) was lowered vertically into the brain to a depth ˜3.6 mm (dependent on animal weight) from the surface, and 300-1,500 nl of viruses was injected using a microinjector (Nanoliter 2010, World Precision Instruments Inc., United States). We injected the adeno-associated virus (AAV)8 GFP-2a-P301 Ltau (with the chicken beta actin [CBA] promoter; hereafter referred to as AAV-tau). In AAV-tau the short 2A peptide cleaves GFP and human tau during translation at the ribosome. […]
(§2) In these experiments, a final concentration of 50 mg/kg of Fasudil (10 mM; Selleck Chemicals, Houston, TX, United States) was infused for 14 days in mice and stored at −80° C., whilst a final concentration of 80 mg/kg of Lonafarnib (5 mM; Cayman Chemical, Ann Arbor, MI, United States) was infused for 10 days and stored −20° C. between infusions. […] All dosages in ml were calculated using; dosage (mg)/concentration (mg/ml)=dose×ml) and were infused at a volume of 60 μl at a rate of 1 μl/min using saline as a control vehicle. […]

The subject of data set [4] is 3xTg AD mice. Put plainly: Multiplex ELISA of Aβ40, Aβ42, p-tau and t-tau in CSF sampled by push-pull microdialysis. It is filed as in vivo. The note with it: Lonafarnib, day 10 of infusion, average across younger (injected with AAV-tau) and older mice, vs vehicle. On the procedure: Animals were implanted with microdialysis guide cannulas 2 months following injections. Push-pull microdialysis apparatus and sampling Push-pull microdialysis was conducted as previously described (Bjorkli et al., 2021 supra). A refrigerated fraction collector (CMA 470) was set to 6° C. for the storage of collected CSF in 300 μl low-retention polypropylene plastic vials (Harvard Apparatus, Cambridge, MA, United States). Fluorinated ethylene propylene (FEP) peristaltic tubing (CMA Microdialysis AB, Kista, Sweden) was placed inside each plastic vial for collection and connected to the cassette of the peristaltic roller pump (Reglo ICC Digital). This peristaltic FEP tubing was connected to the outlet side of microdialysis probes (β-irrigated 2 mDa microdialysis probe; CMA 7; CMA Microdialysis AB, Kista, Sweden) with a polyethersulfone 2 mm membrane with tubing adapters bathed in 75% ethanol. FEP tubing (CMA Microdialysis AB, Kista, Sweden) was connected to each microsyringe. The FEP tubing was then connected to the inlet part of the microdialysis probes. Transparent cages were prepared with 1.5 cm of bedding, filled water bottles, and treats. Saline or drugs were loaded inside a gastight microsyringe (CMA Microdialysis AB, Kista, Sweden), which was placed into a syringe pump (CMA 4004). The “dead volume” of the FEP outlet tubing ([…]) was calculated. 100 cm of FEP outlet tubing was used, and therefore the first […] sampled from each animal were discarded. Prior to inserting the microdialysis probes into the guide cannula, the probe was conditioned in 75% ethanol for better recovery of analytes. At the conclusion of microdialyte sampling, the vials of 60 μl CSF were centrifuged and kept at −80° C. until the samples were analyzed with multiplex ELISA.
as §2
The MILLIPLEX® MAP human Aβ and tau magnetic bead panel 4-plex ELISA kit (Millipore, Burlington, MA, United States) and the Bio-Plex 200 System instrument (Biorad, Hercules, CA, United States) were used to assess simultaneously the concentrations of Aβ40, Aβ42, total tau (t-tau), and phosphorylated tau at Thr181 (p-tau) in CSF samples. The samples were undiluted and analyzed in duplicates.
Background: In an ELISA, binding on a coated surface is turned into a signal by an enzyme label.

Data set [5] relates to 3xTg AD mice. Put plainly: LAMP1 immunolabelling in dSub. It is filed as in vivo. The note with it: Lonafarnib infused (n=4) vs vehicle (n=8). From the text:
We immunolabelled for lysosomal associated membrane protein 1 (LAMP1) in 3xTg AD mice.

Another data set deals with mice. In words: Observation of side-effects during intraventricular drug infusions. It is filed as in vivo. The note with it: intraventricular infusion: 50 mg/kg Fasudil for 14 days; 80 mg/kg Lonafarnib for 10 days. As for the experimental part: Fasudil and Lonafarnib have previously been delivered using DMSO, which can damage the BBB and mitochondria as well as cause apoptosis. […] Previous research has shown that ˜98% of all small molecules are not transported across the BBB, whilst other research has shown poor drug transport from CSF to the brain. Taking drug transport across the BBB, and from CSF into the brain parenchyma into consideration, dosages of both 25, 50 and 80 mg/kg were administered in initial pilot experiments.
as §1

The conditions of data set [6]: cited from earlier work.

`NC(=O)N1CCC(CC(=O)N2CCC([C@H]3c4ncc(Br)cc4CCc4cc(Cl)cc(Br)c43)CC2)CC1` [Lonafarnib, 4-(2-{4-[(11R)-3,10-dibromo-8-chloro-6,11-dihydro-5H-benzo[5,6]cyclohepta[1,2-b]pyridin-11-yl]piperidin-1-yl}-2-oxoethyl)piperidine-1-carboxamide]: in the data set on 3xTg AD mice [1], the “number of Aβ+ neurons in dSub” value is given as “did not affect”. Besides, the “size of amyloid plaques in dSub compared to vehicle” value with 3xTg AD mice [2] (n.s.) is “moderately increased”. Besides, in the data set on 3xTg AD mice [2] (p=0.0017), the “number of dense-core amyloid plaques (overlapping with MC1 immunolabelling) in dSub compared to vehicle infused mice” value is listed as “effectively reduced”. In data set [3], the “number of tau+ neurons in LEC following injection of AAV-tau” value was “moderately reduced”. Besides, in the data set on 3xTg AD mice [4] (n.s.), the “CSF AB42 levels” value is given as “moderately reduced” and the CSF p-tau levels result is “moderately reduced”. In addition, in the data set on 3xTg AD mice [4] (p<0.01), the “CSF Aβ40 levels” value is reported as “effectively reduced” and the CSF t-tau levels result was “effectively reduced”. For the same compound, in the data set on 3xTg AD mice [5], the “LAMP1+ neurons in dSub compared to vehicle infused mice” value was “more prominent”. In addition, in the data set with mice, the observable side-effects result was “no observable side-effects”. Also, the “solubility in aqueous buffers” value in data set [6] is “sparingly soluble”.
